From patent US7094600B2, “Screen for sodium channel modulators” (The Research Foundation of State University of New York, priority 2003, dated 2006)
Values joined by “and” are separate entries in the source; they are usually repeats but may differ in a detail not shown here. Equal values may be shown once. Read-outs that look alike come from different tables or passages of the source.

What was measured:
[1] = tested on: pronase-treated Na+ channels; conditions: cited from earlier work
[2] = molecular target: T1, hNav1.4-L443C/A444W Na+ channels (Homo sapiens, UniProt P35499, A444W/L443C); assay: Whole-cell patch clamp of hNav1.4-L443C/A444W mutant Na+ channels in stably transfected HEK293 cells; format: cell-based
T1 construct: full-length hNav1.4 cDNA inserted in the pRc/CMV vector; expressed in transfected cells; pRc/CMV vector

[3] = molecular target: T2, rNav1.4 Na+ channels (wild-type) (Rattus norvegicus, UniProt P15390); assay: Whole-cell patch clamp of wild-type rNav1.4 Na+ currents in transfected HEK293t cells; format: cell-based; set-up: time constant of recovery from inactivated block / block of peak Na+ currents (resting state): dose or concentration left out as unconfirmed; conditions: for time for full recovery from flecainide block (dissociation): holding potential −140 mV, block developed after channel activation
T2 construct: expressed in transfected cells; host or cells: HEK293t, transient, calcium phosphate; pcDNA1/Amp vector

[4] = molecular target: T3, rNav1.4-L435W/L437C/A438W mutant channels (Rattus norvegicus, UniProt P15390, A438W/L435W/L437C); assay: Whole-cell patch clamp of inactivation-deficient rNav1.4-L435W/L437C/A438W mutant channels in HEK293t cells; format: cell-based
T3 construct: expressed in transfected cells; host or cells: HEK293t, transient, calcium phosphate; pcDNA1/Amp vector

[5] = tested on: IFM/QQQ mutant channels; conditions: cited from earlier work
[6] = as antiarrhythmic agent; cited from earlier work
[7] = 10 μM, external, 100-ms test pulse at +50 mV
[8] = 30 μM flecainide, 10 s conditioning prepulses -180 to -10 mV, test +30 mV

T3 sequence (P15390 whole entry L435W/L437C/A438W): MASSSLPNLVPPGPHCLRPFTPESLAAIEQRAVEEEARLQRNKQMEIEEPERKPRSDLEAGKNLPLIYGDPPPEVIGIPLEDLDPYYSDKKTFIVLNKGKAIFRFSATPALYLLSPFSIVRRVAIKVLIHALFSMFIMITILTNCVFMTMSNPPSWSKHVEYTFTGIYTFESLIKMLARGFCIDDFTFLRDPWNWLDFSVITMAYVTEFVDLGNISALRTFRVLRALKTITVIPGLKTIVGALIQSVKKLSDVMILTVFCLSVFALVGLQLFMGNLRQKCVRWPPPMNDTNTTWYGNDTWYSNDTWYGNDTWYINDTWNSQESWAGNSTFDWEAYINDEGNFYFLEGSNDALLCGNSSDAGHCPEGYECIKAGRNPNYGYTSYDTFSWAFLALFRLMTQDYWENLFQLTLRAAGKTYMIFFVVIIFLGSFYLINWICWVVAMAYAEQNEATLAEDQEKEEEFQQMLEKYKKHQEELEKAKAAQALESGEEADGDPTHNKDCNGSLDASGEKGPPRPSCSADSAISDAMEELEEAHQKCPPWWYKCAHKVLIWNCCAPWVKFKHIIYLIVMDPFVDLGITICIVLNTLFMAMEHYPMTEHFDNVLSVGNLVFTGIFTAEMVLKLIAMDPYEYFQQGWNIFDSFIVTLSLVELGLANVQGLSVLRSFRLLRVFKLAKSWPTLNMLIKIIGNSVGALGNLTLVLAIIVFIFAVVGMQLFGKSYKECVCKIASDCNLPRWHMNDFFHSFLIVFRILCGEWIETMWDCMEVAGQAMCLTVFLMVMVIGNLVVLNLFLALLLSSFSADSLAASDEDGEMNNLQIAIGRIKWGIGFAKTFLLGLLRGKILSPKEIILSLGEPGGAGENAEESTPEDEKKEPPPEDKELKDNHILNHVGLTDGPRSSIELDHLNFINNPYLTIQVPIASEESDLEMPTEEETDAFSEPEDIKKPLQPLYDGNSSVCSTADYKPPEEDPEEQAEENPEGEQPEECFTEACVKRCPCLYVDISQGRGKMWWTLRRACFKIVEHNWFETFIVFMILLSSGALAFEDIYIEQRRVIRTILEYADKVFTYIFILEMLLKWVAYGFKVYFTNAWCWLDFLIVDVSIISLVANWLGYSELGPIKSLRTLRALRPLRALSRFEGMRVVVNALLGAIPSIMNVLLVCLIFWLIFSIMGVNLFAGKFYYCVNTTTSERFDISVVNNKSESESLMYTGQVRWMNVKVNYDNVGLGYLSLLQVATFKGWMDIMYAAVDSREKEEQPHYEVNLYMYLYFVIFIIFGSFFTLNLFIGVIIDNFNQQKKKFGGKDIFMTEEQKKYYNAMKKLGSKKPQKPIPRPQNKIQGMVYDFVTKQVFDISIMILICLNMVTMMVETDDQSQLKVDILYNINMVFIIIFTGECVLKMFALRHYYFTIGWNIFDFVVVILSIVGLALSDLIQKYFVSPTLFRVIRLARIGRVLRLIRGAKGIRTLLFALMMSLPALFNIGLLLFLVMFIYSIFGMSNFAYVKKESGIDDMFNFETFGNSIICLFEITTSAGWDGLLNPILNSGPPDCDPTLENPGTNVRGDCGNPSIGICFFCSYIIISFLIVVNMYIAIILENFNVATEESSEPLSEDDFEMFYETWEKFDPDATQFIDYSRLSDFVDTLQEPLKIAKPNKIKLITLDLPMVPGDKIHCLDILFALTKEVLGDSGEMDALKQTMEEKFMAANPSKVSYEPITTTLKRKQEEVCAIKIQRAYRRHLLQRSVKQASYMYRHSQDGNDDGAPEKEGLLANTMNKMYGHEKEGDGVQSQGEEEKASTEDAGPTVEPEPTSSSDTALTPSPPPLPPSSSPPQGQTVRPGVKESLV
T3 sequence (Q00954 19-218 partner): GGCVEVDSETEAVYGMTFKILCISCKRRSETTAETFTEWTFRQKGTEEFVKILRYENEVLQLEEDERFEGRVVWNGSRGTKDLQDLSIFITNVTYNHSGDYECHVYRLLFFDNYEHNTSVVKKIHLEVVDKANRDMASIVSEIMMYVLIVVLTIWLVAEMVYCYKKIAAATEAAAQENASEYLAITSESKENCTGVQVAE
T1 sequence (P35499 whole entry L443C/A444W): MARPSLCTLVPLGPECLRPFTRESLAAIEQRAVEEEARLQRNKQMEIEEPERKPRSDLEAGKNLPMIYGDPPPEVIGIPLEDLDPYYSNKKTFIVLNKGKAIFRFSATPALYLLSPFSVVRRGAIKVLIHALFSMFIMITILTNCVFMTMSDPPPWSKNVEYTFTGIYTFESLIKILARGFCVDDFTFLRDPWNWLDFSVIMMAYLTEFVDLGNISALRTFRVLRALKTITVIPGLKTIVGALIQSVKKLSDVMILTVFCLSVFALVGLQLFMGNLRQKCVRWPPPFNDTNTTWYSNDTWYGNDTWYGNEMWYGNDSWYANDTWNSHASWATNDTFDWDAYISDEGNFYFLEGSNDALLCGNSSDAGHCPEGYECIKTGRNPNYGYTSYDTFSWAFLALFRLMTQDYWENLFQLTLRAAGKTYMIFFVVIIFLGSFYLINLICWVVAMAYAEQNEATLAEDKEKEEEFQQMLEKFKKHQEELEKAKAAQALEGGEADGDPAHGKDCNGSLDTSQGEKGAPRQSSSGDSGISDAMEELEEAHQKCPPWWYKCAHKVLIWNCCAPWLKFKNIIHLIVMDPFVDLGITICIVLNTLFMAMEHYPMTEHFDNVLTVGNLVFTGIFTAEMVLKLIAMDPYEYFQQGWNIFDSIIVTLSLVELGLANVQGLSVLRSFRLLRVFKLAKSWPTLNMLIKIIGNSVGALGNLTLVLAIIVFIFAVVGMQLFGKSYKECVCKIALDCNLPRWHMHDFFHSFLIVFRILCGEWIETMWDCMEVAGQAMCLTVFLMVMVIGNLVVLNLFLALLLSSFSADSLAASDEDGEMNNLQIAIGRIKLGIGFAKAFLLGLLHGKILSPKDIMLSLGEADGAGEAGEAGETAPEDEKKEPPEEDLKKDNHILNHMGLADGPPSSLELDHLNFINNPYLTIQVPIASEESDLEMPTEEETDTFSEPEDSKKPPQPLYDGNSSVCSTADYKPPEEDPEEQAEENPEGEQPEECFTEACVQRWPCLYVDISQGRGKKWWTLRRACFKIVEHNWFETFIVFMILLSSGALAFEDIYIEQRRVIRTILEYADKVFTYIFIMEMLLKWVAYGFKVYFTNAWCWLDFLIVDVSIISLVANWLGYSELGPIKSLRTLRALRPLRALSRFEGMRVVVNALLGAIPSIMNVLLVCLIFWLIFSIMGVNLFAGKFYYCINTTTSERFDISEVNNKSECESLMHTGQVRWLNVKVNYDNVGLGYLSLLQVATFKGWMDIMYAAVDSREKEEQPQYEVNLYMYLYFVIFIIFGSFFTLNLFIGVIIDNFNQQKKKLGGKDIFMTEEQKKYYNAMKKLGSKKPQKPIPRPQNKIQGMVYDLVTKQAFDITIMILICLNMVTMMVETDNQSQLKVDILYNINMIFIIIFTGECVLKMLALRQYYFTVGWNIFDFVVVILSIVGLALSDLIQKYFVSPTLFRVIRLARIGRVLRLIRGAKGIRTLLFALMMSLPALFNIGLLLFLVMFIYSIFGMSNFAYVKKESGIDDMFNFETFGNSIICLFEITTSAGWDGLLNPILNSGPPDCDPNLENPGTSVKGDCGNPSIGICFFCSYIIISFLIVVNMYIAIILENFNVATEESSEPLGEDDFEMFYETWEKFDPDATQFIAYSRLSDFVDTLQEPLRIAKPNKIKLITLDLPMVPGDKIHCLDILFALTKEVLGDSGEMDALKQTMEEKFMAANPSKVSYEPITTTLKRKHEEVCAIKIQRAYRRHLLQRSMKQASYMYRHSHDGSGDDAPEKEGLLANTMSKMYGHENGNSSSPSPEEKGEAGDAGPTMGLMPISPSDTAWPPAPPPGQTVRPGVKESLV
T2 sequence (P15390 whole entry): as the sequence (P15390 whole entry L435W/L437C/A438W) above, with W435L, C437L, W438A counted along it
T2 sequence (Q00954 19-218 partner): as the sequence (Q00954 19-218 partner) above

For `CC[N+](CC)(CC)CC(=O)Nc1c(C)cccc1C` [QX-314], the “block of inactivation-deficient Na+ currents” value [1] is listed as “does not block”.
In the case of `CCCNC[C@H](O)COc1ccccc1C(=O)CCc1ccccc1.Cl` [(S)-propafenone, (S)-Propafenone-HCl], the “inhibition of peak Na+ currents” value ([2]; 10 μM, external) is reported as “also inhibited, but to a lesser extent” and the “block of persistent late Na+ currents” value [2, 7] is reported as “potently blocks”.
For `O=C(NCC1CCCCN1)c1cc(OCC(F)(F)F)ccc1OCC(F)(F)F` (stereo not drawn) [flecainide], the “block of persistent late Na+ currents” value [2, 7] was “strong block”, the IC50 [3] was about 400 µM and the “time constant of recovery from inactivated block” value [3] was over 100 s. The “V0.5 of Boltzmann fit, voltage dependence of flecainide block” value [3, 8] was −57.3±2.7 mV, the “kE (slope factor) of Boltzmann fit, voltage dependence of flecainide block” value [3, 8] was 17.6±2.1 mV and the “time for flecainide block to reach steady state” value ([3]; 30 mM flecainide, +50 mV pulses at 30-s interval) was 5 to 7 min. For the same molecule, the inhibition at 30000 µM ([3]; HEK-293T, read-out: peak currents inhibited after flecainide block reached steady state) was about 50%, the “time constant of development of the inactivated block” value ([3]; at −50 mV) was 10.9 ± 1.3 s and the “block of peak Na+ currents (resting state)” value ([3]; cell not stimulated repetitively in 1,000 s) was about 20%. For the same molecule, the “time for full recovery from flecainide block (dissociation)” value [3] was ≥ 1,000 s, the “time for full recovery from flecainide block (dissociation)” value ([3]; listed as Flecainide) was “up to 10,000 s” and the additional use-dependent block ([3]; repetitive pulses at 5 Hz for 60 pulses) was about 50%. For the same molecule, the “difference between the high and low flecainide affinities” value ([3]; −20 mV vs −140 mV conditioning) was “less than 3 fold”, the “time to steady state block at each concentration” value ([4]; 140 ms test pulse to +30 mV every 30 seconds, 0.1 to 30 μM) was at most 5 min and the “block of the maintained Na+ currents” value ([4]; at +50 mV, 0.1 to 30 μM flecainide) was “strong time-dependent block”. The “time constant of recovery from the open channel block” value ([4]; at −140 mV) was 11.2 s, the IC50 ([4]; conditioning pulse −50 mV, 10 s, read-out: IC50 with a conditioning pulse at −50 mV for 10 s (estimated block at the peak current)) was 4.1 ± 0.1 µM and the Kd ([4]; from off-rate/on-rate, read-out: calculated dissociation constant (open channel)) was 0.81 µM. For the same molecule, the “difference of resting and open channel affinities” value ([4]; inactivation-deficient mutant channels) was about 500 fold, the IC50 ([4]; open channel, read-out: IC50 for the open block (estimated block at the end of the pulse)) was 0.61 ± 0.07 µM and the IC50 ([4]; resting channel, holding −140 mV, read-out: IC50 for the resting block (estimated block at the peak current)) was 208 µM and 307 µM. The “on-rate constant with the open channel” value ([4]; test pulse +30 mV, slope of 1/τ vs concentration) was 1.49e+07 M⁻¹ s⁻¹, the “off-rate constant with the open channel” value ([4]; test pulse +30 mV, y-intercept of 1/τ vs concentration) was 12.2 s⁻¹ and the “open-channel block in IFM/QQQ mutant channels” value [5] was “weak open-channel block”.
In the case of `Cc1cccc(C)c1OCC(C)N` (stereo not drawn) [mexiletine], the “block of persistent late Na+ currents” value [2, 7] is given as “strong block” and the therapeutic plasma concentration [6] is given as 2.8 to 11.2 µM.
In the case of `CC(C)N(CCC(C(N)=O)(c1ccccc1)c1ccccn1)C(C)C` (stereo not drawn) [disopyramide], the “open-channel block in IFM/QQQ mutant channels” value [5] is given as “weak open-channel block”.
In the case of `NC1=N[C@H](O)[C@H]2[C@H]3O[C@]4(O)O[C@@H]([C@@H](O)[C@@]2(N1)[C@@H]4O)[C@]3(O)CO` [TTX, Tetrodotoxin], the Hill coefficient [2] is reported as 1.09±0.04 and the “time-dependent block by TTX” value [2] is reported as “no evidence of a time-dependent block”.
In the case of batrachotoxin [BTX], the “activation threshold of BTX-modified Na+ currents” value ([2]; 5 μM BTX in pipette solution) is reported as −80 mV, the “effect on fast and slow inactivation” value ([2]; 5 μM BTX in pipette solution) is reported as “completely eliminates the fast and the slow inactivation” and the “shift of activation threshold” value ([2]; 5 μM BTX in pipette solution, after 400 repetitive pulses at +50 mV, 1 Hz) is reported as about −40 mV.
In the case of `CCCCc1oc2ccccc2c1C(=O)c1cc(I)c(OCCN(CC)CC)c(I)c1` [amiodarone], the “block of persistent late Na+ currents” value [2] is reported as “Most, if not all, persistent late currents were inhibited”, the “inhibition of peak Na+ currents” value [2] is reported as “also reduced slowly, but again to a lesser extent” and the “time to steady-state block of late Na+ currents (wash-in)” value [2] is reported as 15 min. For the same molecule, the wash-out of block [2] was “slow and incomplete”.
